Test results as given in the NIST ThermoML archive (doi:10.1016/j.fluid.2018.09.026).
“And” between values parts separate entries of the source, which are not always exact repeats. Equal values may be shown once.

Conditions: Liquid; for mass density: Vibrating tube method; for viscosity: 362.81 K, Vibrating wire viscometry

OCCOCCO [diethylene glycol]
Conditions	mass density
343.15 K, 3060 kPa	1081.2 kg/m3
343.15 K, 5040 kPa	1082.3 kg/m3
343.15 K, 6970 kPa	1083.3 kg/m3
343.15 K, 9950 kPa	1084.8 kg/m3
343.15 K, 14870 kPa	1087.3 kg/m3
343.15 K, 19740 kPa	1089.6 kg/m3
343.15 K, 24710 kPa	1092.1 kg/m3
343.15 K, 29560 kPa	1094.4 kg/m3
343.15 K, 34490 kPa	1096.6 kg/m3
343.15 K, 39350 kPa	1098.8 kg/m3
343.15 K, 44290 kPa	1101 kg/m3
343.15 K, 49180 kPa	1103.1 kg/m3
343.15 K, 54070 kPa	1105.2 kg/m3
343.15 K, 58980 kPa	1107.3 kg/m3
343.15 K, 63910 kPa	1109.3 kg/m3
343.15 K, 68720 kPa	1111.2 kg/m3
353.15 K, 100 kPa	1072.2 kg/m3
353.15 K, 560 kPa	1072.5 kg/m3
353.15 K, 1090 kPa	1072.8 kg/m3
353.15 K, 1550 kPa	1073 kg/m3
353.15 K, 2080 kPa	1073.3 kg/m3
353.15 K, 3040 kPa	1073.8 kg/m3
353.15 K, 5060 kPa	1074.9 kg/m3
353.15 K, 7020 kPa	1076 kg/m3
353.15 K, 9970 kPa	1077.5 kg/m3
353.15 K, 14830 kPa	1080.1 kg/m3
353.15 K, 19740 kPa	1082.6 kg/m3
353.15 K, 24680 kPa	1085.1 kg/m3
353.15 K, 29560 kPa	1087.5 kg/m3
353.15 K, 34550 kPa	1089.8 kg/m3
353.15 K, 39420 kPa	1092.1 kg/m3
353.15 K, 44280 kPa	1094.3 kg/m3
353.15 K, 49230 kPa	1096.5 kg/m3
353.15 K, 54110 kPa	1098.7 kg/m3
353.15 K, 59020 kPa	1100.8 kg/m3
353.15 K, 64010 kPa	1102.9 kg/m3
353.15 K, 68770 kPa	1104.8 kg/m3
363.08 K, 100 kPa	1064.5 kg/m3 and 1064.4 kg/m3
363.08 K, 620 kPa	1064.7 kg/m3
363.08 K, 1110 kPa	1065 kg/m3
363.08 K, 1570 kPa	1065.2 kg/m3
363.08 K, 2100 kPa	1065.5 kg/m3
363.08 K, 3020 kPa	1066 kg/m3
363.08 K, 5070 kPa	1067.2 kg/m3
363.08 K, 7000 kPa	1068.3 kg/m3
363.08 K, 9970 kPa	1069.9 kg/m3
363.08 K, 14840 kPa	1072.6 kg/m3
363.08 K, 19750 kPa	1075.1 kg/m3
363.08 K, 24660 kPa	1077.7 kg/m3
363.08 K, 29610 kPa	1080.2 kg/m3
363.08 K, 34480 kPa	1082.6 kg/m3
363.08 K, 39400 kPa	1084.9 kg/m3
363.08 K, 44290 kPa	1087.2 kg/m3
363.08 K, 49160 kPa	1089.5 kg/m3
363.08 K, 54110 kPa	1091.7 kg/m3
363.08 K, 58990 kPa	1093.9 kg/m3
363.08 K, 63880 kPa	1096 kg/m3
363.08 K, 68760 kPa	1098 kg/m3

Conditions	viscosity
230 kPa	3.458 mPa·s [middle of 4 runs]
240 kPa	3.444 mPa·s
1070 kPa	3.462 mPa·s and 3.469 mPa·s
2190 kPa	3.473 mPa·s and 3.514 mPa·s and 3.458 mPa·s
5080 kPa	3.546 mPa·s [middle of 5 runs]
9970 kPa	3.652 mPa·s [middle of 4 runs]
20040 kPa	3.834 mPa·s
20050 kPa	3.862 mPa·s and 3.82 mPa·s and 3.837 mPa·s
30200 kPa	4.039 mPa·s
30210 kPa	4.007 mPa·s
40240 kPa	4.264 mPa·s and 4.237 mPa·s
40250 kPa	4.205 mPa·s and 4.242 mPa·s
50100 kPa	4.435 mPa·s
50110 kPa	4.47 mPa·s and 4.453 mPa·s
69940 kPa	4.921 mPa·s
69950 kPa	4.913 mPa·s
70000 kPa	4.894 mPa·s
70020 kPa	4.924 mPa·s
